From patent US11925617B2 (priority 2005, dated 2024)

Columns and labels:
bcl-2 protein = format: cell-based
HT29 cells = format: cell-based, Human
SCC VII cells = format: cell-based, murine
HL60 bcl-2 cells [1] = assay: cells; format: cell-based
HL60 bcl-2 cells [2] = format: cell-based
HL60 neo cells [3] = assay: cells; format: cell-based; settings: Homo sapiens, HL-60, 240 h, read-out: inhibition of cell growth
HL60 neo cells [4] = format: cell-based

In the case of `O=C(CBr)N1CC([N+](=O)[O-])([N+](=O)[O-])C1` [ABDNAZ], the bcl-2 protein expression (bcl-2 protein) is reported as “inhibited bcl-2 protein expression in both neo and bcl-2 cells in a dose-dependent manner”, the “intracellular ROS generation, combined treatment of ABDNAZ and radiation” value (HT29 cells) is reported as “synergistically induced intracellular ROS generation” and the “production of ROS” value (HT29 cells) is reported as “dose, time and cell line dependent”. The “time of peak ROS production” value (HT29 cells) was 24 h, the “intracellular ROS generation, combined treatment of ABDNAZ and radiation” value (SCC VII cells) was “synergistically induced intracellular ROS generation” and the “levels of ROS compared with HT29 cells” value (SCC VII cells) was “significantly higher than that induced in HT29 cells”. For the same compound, the “production of ROS” value (SCC VII cells) was “dose, time and cell line dependent”, the “time of peak ROS production” value (SCC VII cells) was 2 h and the “sensitivity of HL60 bcl-2 cells compared with neo cells” value (HL60 bcl-2 cells [1]) was “as sensitive as neo cells”. For the same compound, the inhibition at 5 µM (HL60 bcl-2 cells [1]; Homo sapiens, HL-60, 240 h, read-out: inhibition of cell growth) was greater than 95%, the apoptosis (HL60 bcl-2 cells [2]) was 78% and the “apoptotic cell death, peak” value (HL60 bcl-2 cells [2]) was roughly 40%. For the same compound, the inhibition at 5 µM (HL60 neo cells [3]) was greater than 95%, the apoptosis (HL60 neo cells [4]) was 95% and the “apoptotic cell death, peak” value (HL60 neo cells [4]) was roughly 40%.
